One assay concerns the target T1, Aβ42 (Homo sapiens, UniProt P05067).
T1 construct: then treated with amyloid beta 1-42 (Aβ) monomer
The assay is described as follows: AβO formation from Aβ monomer in the absence of cells (dot blot, coverslips, fresh or conditioned media). Format: biochemical. The method, then: FIG. 5. A) NU-9 and Aβ were combined in F12 media, in the absence of cells, and incubated at 37° C. B) The concentration of AβOs was probed with NU2 antibody via dot blot after 24 hours in the conditions containing 3 μM NU-9 with or without Aβ.
FIG. 6. In dishes without cells, but in conditions that mimicked cell culture, 3 μM NU-9 and 500 nM Aβ42 for 30 minutes fixed with 3.7% formaldehyde and stained for AβOs (NU2, green) and mounted on slides before imaging at 63×.
FIG. 9. The effect of NU-9 requires the presence of cells. Conditioned media was collected from mature hippocampal neuron. DMSO control (Control), Aβ monomer (Aβ), or NU-9 and then Aβ (NU-9+Aβ in cond. media) were added, then concentration of AβOs were analyzed by dot blot. Conditioned media was also collected from neurons treated with NU-9, then Aβ was added to this (Media from NU-9 in cells+Aβ). […] Standard curve was created in media using 0-1000 fmol AβOs. The dot blot was labelled with NU2 (anti-AβO).
FIG. 10. […] (Conditioned Media) A dot blot probed with NU2 was used to measure AβO abundance in solutions of conditioned media to which DMSO vehicle (control), Aβ, and NU-9 followed by Aβ were added for 30 min each. The bottom row corresponds to samples in which cells were treated with NU-9 for 30 min, then extracellular media was removed, and Aβ was added to the media for 30 min. The standard curve at the top was made from 0-1000 fmol preformed AβOs. (Fresh Media) A dot blot probed with NU2 was used to measure AβO abundance in solutions of culture media to which DMSO vehicle (control), Aβ, and NU-9 (3-300 μM) followed by Aβ were added for 30 min each. Each of these solutions was prepared in triplicate. The standard curve at the top was made from 0-1000 fmol preformed AβOs.
In the absence of cells, NU-9 has no effect on AβO formation. […] Next, a follow-up experiment was conducted using conditions that more closely mimicked those of cell culture. Coverslips were coated, as usual for cell culture, with poly-D-lysine, and then placed into culture dishes with media. No cells were added. Then 3 μM NU-9 and 500 nM AβOs were added for 30 min. In this assay, the previous result was replicated.
Instead, NU-9 exerts an effect at the cell membrane or intracellularly.

The next assay concerns preformed AβOs. The assay is described as follows: Binding of preformed AβOs to hippocampal neurons. It counts as cell-based, rat. The procedure: FIG. 11. […] Hippocampal neurons were treated with 3 μM NU-9 or vehicle for 30 min, then with Aβ monomer or preformed AβOs for 24 h. […] Neurons were stained with NU4 (anti-AβO antibody) and puncta per process were quantified.
FIG. 15. Mature hippocampal neurons were pre-treated with vehicle or 3 μM NU-9 for 30 min, then vehicle, 200 nM, or 500 nM AβO for 30 min. Then cells were fixed and labelled using anti-MAP2 (green, dendrites), DAPI (blue, nucleus), and NU2 (red, AβOs).
FIG. 19. Mature hippocampal neurons were treated first with 3 μM 9 for 30 min, and then with A) 30 or B) 200 nM LC AβOs for 30 min. Then, cells were fixed and labelled with anti-MAP2, DAPI, and NU2 (AβOs). The graphs show quantification of puncta/μm dendrite (30 images analyzed/condition, *** indicates p<0.001, ** p<0.01, * p<0.05).
If NU-9 did have some effect on preformed AβOs, this would support the alternate hypothesis that NU-9 removes AβO binding targets such as NKAα3 or PRP^c from the neuronal membrane^8-10.

The next assay addresses T2, cathepsin B (Rattus norvegicus, UniProt P00787).
T2 construct: endogenous in cells
The assay is described as follows: Cathepsin B activity in hippocampal neurons (cell-based, Magic Red). The conditions noted are these: neurons treated with NU-9 30 minutes.

“Also recorded” adds a separate entry of the source.

T1 sequence (P05067 672-713): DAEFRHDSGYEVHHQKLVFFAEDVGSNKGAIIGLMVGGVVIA
T2 sequence (P00787 80-126 limits assumed): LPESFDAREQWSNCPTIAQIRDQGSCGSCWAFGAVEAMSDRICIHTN
T2 sequence (P00787 129-333 limits assumed): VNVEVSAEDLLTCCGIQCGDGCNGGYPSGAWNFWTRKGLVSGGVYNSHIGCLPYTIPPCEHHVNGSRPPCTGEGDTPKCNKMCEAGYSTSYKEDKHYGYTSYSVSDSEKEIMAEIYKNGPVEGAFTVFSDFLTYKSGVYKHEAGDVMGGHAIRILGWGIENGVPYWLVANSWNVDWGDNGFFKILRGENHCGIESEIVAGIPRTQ

Consider `C[C@H](Oc1cc(C(F)(F)F)cc(C(F)(F)F)c1)C1CC(=O)CC(=O)C1` [NU-9, (S)-5-(1-(3,5-bis(trifluoromethyl)phenoxy)ethyl)cyclohexane-1,3-dione], for which the “AβO concentration by NU2 dot blot, no cells” value on Aβ42 (3 μM NU-9 and Aβ in F12 media, 37° C., 24 hours) is listed as “no change in AβO formation was observed; also recorded: No significant difference was observed”. Also, on Aβ42 (NU-9 3 μM, 30 min added to media, Aβ monomer 500 nM, 30 min), the “AβOs formed from Aβ monomer in conditioned media of untreated cells” value is “did not reduce the number of AβOs formed from Aβ monomer; also recorded: Aβ was not reduce in any treatment condition”. Also, the “AβO formation from Aβ monomer in fresh media (dot blot)” value at Aβ42 (NU-9 3-300 μM followed by Aβ, 30 min each) was “did not reduce ABO formation directly; also recorded: does not reduce AβO formation from Aβ monomer in cell-free solution”. For the same compound, the “AβOs formed from Aβ monomer in conditioned media from cells treated with NU-9” value on Aβ42 (cells treated 3 μM NU-9 30 min, media removed, Aβ added 30 min) was “also did not reduce the number of AβOs formed from Aβ monomer in the absence of cells”. Further, on Aβ42 (poly-D-lysine coverslips in media, 3 μM NU-9 and 500 nM Aβ42, 30 min), the “number of AβOs bound to coverslips, no cells” value is on record as “did not affect AβO formation; also recorded: did not significantly affect the number of AβOs bound to coverslips”. For the same compound, in the assay with preformed AβOs (3 μM 30 min, then 30 or 200 nM LC AβOs 30 min), the “binding of AβOs to hippocampal neurons (puncta/μm dendrite)” value is given as “no effect on the binding of the AβOs to hippocampal neurons”. Also, the “binding of preformed AβOs to dendrites (puncta/μm)” value with preformed AβOs (3 μM NU-9 30 min, then 200 or 500 nM AβO 30 min) is given as “has no effect on the binding of preformed AβOs; also recorded: no effect on binding to dendrites”. The “binding of preformed AβOs to neurons (NU4 puncta per process)” value with preformed AβOs (3 μM NU-9 30 min, then preformed AβOs 24 h) is recorded as “does not reduce binding in neurons treated with premade AβOs; also recorded: does not reduce binding of preformed AβOs to neurons”. At cathepsin B, the “cathepsin B activity in hippocampal neurons” value is listed as “not observed to alter cathepsin B activity”.
